Read-outs that look alike come from different tables or passages of the source.
Assays:
human PPARdelta = biological target: T1, human PPARdelta (Homo sapiens, UniProt Q03181); test: Cellular PPARdelta assay (HEK reporter cell line, luciferase); assay type: cell-based; conditions: PPARdelta reporter cell line (HEK, GR-GAL4-humanPPARdelta-LBD)
T1 construct: human PPARdelta receptor (amino acids S139-Y441); expressed in transfected cells; host or cells: HEK (human embryo kidney) cells, stably transfected; plasmid pcDNA3
T1 sequence (Q03181 139-441): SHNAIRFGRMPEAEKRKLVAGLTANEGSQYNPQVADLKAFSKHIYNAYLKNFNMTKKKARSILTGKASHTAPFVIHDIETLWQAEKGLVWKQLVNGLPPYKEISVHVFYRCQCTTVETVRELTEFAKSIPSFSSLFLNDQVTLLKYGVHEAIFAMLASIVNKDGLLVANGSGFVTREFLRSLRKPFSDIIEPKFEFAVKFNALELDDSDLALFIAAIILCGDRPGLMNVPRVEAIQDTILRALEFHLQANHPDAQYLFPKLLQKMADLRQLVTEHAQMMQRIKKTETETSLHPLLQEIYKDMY
Procedure: The potency of substances which bind to human PPARdelta and activate it in an agonistic manner is analyzed using a stably transfected HEK cell line (HEK=human embryo kidney) which is referred to here as PPARdelta reporter cell line. In analogy to the assay described for PPARalpha, the PPARdelta reporter cell line also contains two genetic elements, a luciferase reporter element (pdeltaM-GAL4-Luc-Zeo) and a PPARdelta fusion protein (GR-GAL4-humanPPARdelta-LBD) which mediates expression of the luciferase reporter element depending on a PPARdelta ligand. The stably and constitutively expressed fusion protein GR-GAL4-humanPPARdelta-LBD binds in the cell nucleus of the PPARdelta reporter cell line via the GAL4 protein portion to the GAL4 DNA binding motifs 5″-upstream of the luciferase reporter element which is stably integrated in the genome of the cell line. There is only little expression of the luciferase reporter gene in the absence of a PPARdelta ligand if fatty acid-depleted fetal calf serum (cs-FCS) is used in the assay. PPARdelta ligands bind and activate the PPARdelta fusion protein and thereby stimulate expression of the luciferase reporter gene. The luciferase which is formed can be detected by means of chemiluminescence via an appropriate substrate.
The production of the stable PPARdelta reporter cell line is based on a stable HEK-cell clone which was stably transfected with a luciferase reporter element. This step was already described above in the section “construction of the PPARalpha reporter cell line”. In a second step, the PPARdelta fusion protein (GR-GAL4-humanPPARdelta-LBD was stably introduced into this cell clone. For this purpose, the cDNA coding for the N-terminal 76 amino acids of the glucocorticoid receptor (Accession # P4150) was linked to the cDNA section coding for amino acids 1-147 of the yeast transcription factor GAL4 (Accession #P04386). The cDNA of the ligand-binding domain of the human PPARdelta receptor (amino acids S139-Y441; Accession # L07592) was cloned in at the 3′-end of this GR-GAL4 construct. The fusion construct prepared in this way (GR-GAL4-humanPPARdelta-LBD) was recloned into the plasmid pcDNA3 (Invitrogen) in order to enable constitutive expression by the cytomegalovirus promoter. This plasmid was linearized with a restriction endonuclease and stably transfected into the previously described cell clone containing the luciferase reporter element. The resulting PPARdelta reporter cell line which contains a luciferase reporter element and constitutively expresses the PPARdelta fusion protein (GR-GAL4-human PPARdelta-LBD) was isolated by selection with zeocin (0.5 mg/ml) and G418 (0.5 mg/ml).
The activity of PPARdelta agonists is determined in a 3-day assay in exact analogy to the procedure already described for the PPARalpha reporter cell line except that the PPARdelta reporter cell line and a specific PPARdelta agonist was used as a standard to control test efficacy.

human PPARalpha = biological target: T2, human PPARalpha (Homo sapiens, UniProt Q07869); test: Cellular PPARalpha assay (HEK reporter cell line, luciferase); assay type: cell-based; conditions: PPARalpha reporter cell line (HEK, GR-GAL4-humanPPARalpha-LBD)
T2 construct: human PPARalpha receptor (amino acids S167-Y468); expressed in transfected cells; host or cells: HEK (human embryo kidney) cells, stably transfected; plasmid pcDNA3
T2 sequence (Q07869 167-468): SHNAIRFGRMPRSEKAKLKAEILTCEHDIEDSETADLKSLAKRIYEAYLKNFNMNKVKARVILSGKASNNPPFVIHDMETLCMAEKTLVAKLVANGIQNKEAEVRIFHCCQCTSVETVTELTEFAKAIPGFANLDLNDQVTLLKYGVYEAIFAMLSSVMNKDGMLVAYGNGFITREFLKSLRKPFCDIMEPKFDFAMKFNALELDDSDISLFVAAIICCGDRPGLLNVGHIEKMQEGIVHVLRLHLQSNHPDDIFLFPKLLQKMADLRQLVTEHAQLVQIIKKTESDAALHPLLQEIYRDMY
Procedure: The potency of substances which bind to human PPARalpha and activate it in an agonistic manner is analyzed using a stably transfected HEK cell line (HEK=human embryo kidney) which is referred to here as PPARalpha reporter cell line. It contains two genetic elements, a luciferase reporter element (pdeltaM-GAL4-Luc-Zeo) and a PPARalpha fusion protein (GR-GAL4-humanPPARalpha-LBD) which mediates expression of the luciferase reporter element depending on a PPARalpha ligand. The stably and constitutively expressed fusion protein GR-GAL4-humanPPARalpha-LBD binds in the cell nucleus of the PPARalpha reporter cell line via the GAL4 protein portion to the GAL4 DNA binding motifs 5′-upstream of the luciferase reporter element which is stably integrated in the genome of the cell line. There is only weak expression of the luciferase reporter gene in the absence of a PPARalpha ligand if fatty acid-depleted fetal calf serum (cs-FCS) is used in the assay. PPARalpha ligands bind and activate the PPARalpha fusion protein and thereby stimulate the expression of the luciferase reporter gene. The luciferase which is formed can be detected by means of chemiluminescence via an appropriate substrate.
The PPARalpha reporter cell line was prepared in two stages. […]
The activity of PPARalpha agonists is determined in a 3-day assay which is described below: […]

[1] = diabetic animal model; cited from earlier work
[2] = obese, insulin resistant rhesus monkeys, cited from earlier work
[3] = cynomolgus monkeys; cited from earlier work
[4] = rhesus monkeys; cited from earlier work
[5] = two weeks clinical trials in healthy volunteers; cited from earlier work

## 3-{4-[6-(4-Trifluoromethyl-phenyl)-3,4-dihydro-2H-quinolin-1-yl]-phenyl}-4H-[1,2,4]oxadiazol-5-one [Example 1]
Human PPARdelta
  EC50: 2.3 nM

## O=c1[nH]c(-c2ccc(S(=O)(=O)N3CCCc4nc(-c5ccc(C(F)(F)F)cc5)ccc43)cc2Cl)no1 [Example 13, 3-{2-Chloro-4-[6-(4-trifluoromethyl-phenyl)-3,4-dihydro-2H-[1,5]naphthyridine-1-sulfonyl]-phenyl}-4H-[1,2,4]oxadiazol-5-one]
Human PPARalpha
  EC50: 505 nM
Human PPARdelta
  EC50: 0.4 nM

## CCCc1c(OCCCOc2ccc(OCC(=O)O)cc2)ccc(C(C)=O)c1O [Example L-165041]
[1]
  plasma cholesterol: raises

## CC1(C)Cc2cc(-c3ccc(C(F)(F)F)cc3)ccc2N(c2ccc(-c3noc(=O)[nH]3)c(Cl)c2)C1 [Example 5, 3-{2-Chloro-4-[3,3-dimethyl-6-(4-trifluoromethyl-phenyl)-3,4-dihydro-2H-quinolin-1-yl]-phenyl}-4H-[1,2,4]oxadiazol-5-one]
Human PPARdelta
  EC50: 1.9 nM

## Cc1cc(SCc2sc(-c3ccc(C(F)(F)F)cc3)nc2C)ccc1OCC(=O)O [GW501516]
[2]; plasma
  insulin levels: decreases
  triglycerides: decreases
[2]
  HDL-cholesterol: raises
  plasma LDL-cholesterol: decreases

## 3-{2-Chloro-4-[4,4-dimethyl-6-(4-trifluoromethyl-phenyl)-3,4-dihydro-2H-quinolin-1-yl]-phenyl}-4H-[1,2,4]oxadiazol-5-one [Example 3]
Human PPARdelta
  EC50: 3.3 nM

## O=c1[nH]c(-c2ccc(S(=O)(=O)N3CCNCc4cc(-c5ccc(C(F)(F)F)cc5)ccc43)cc2Cl)no1 [Example 12, 3-{2-Chloro-4-[7-(4-trifluoromethyl-phenyl)-2,3,4,5-tetrahydro-benzo[e][1,4]diazepine-1-sulfonyl]-phenyl}-4H-[1,2,4]oxadiazol-5-one]
Human PPARdelta
  EC50: 530 nM

## CCCc1c(OCCCSc2nnc(SCC(=O)O)s2)ccc(C(C)=O)c1O [YM-16638]
[3]
  plasma lipids: significantly lowers
[4]
  plasma lipids: significantly lowers
[5]
  plasma lipids: acts in a similar manner

## 3-{2-Chloro-4-[7-(4-trifluoromethyl-phenyl)-2,3-dihydro-pyrido[3,2-b][1,4]oxazin-4-yl]-phenyl}-4H-[1,2,4]oxadiazol-5-one [Example 8]
Human PPARdelta
  EC50: 55 nM
